Data reported in ChEMBL document CHEMBL1201862, “PubChem BioAssay data set” (2004).
Active and inactive are the calls of the source.

system: not listed separately; experiment: luciferase reporter signal suppression in cells – H4 neuroglioma cells, luminescence, dose response (AID 1990); type: functional, cell-based; details: not given

| Structure (SMILES) | EC50 |
| --- | --- |
| CC(C)Cc1nc2n[nH]c(N)c2c2c1COC(C)(C)C2 | 38.2 µM (active) |
| O=C(c1nc2nc(-c3ccc(Cl)cc3)cc(C(F)(F)F)n2n1)N1CCOCC1 | 14 µM (active) |
| COc1ccc(-c2[nH]ncc2CN2CCC(O)(c3ccc(Cl)cc3)CC2)cc1 | 18.2 µM (active) |
| COc1cccc(-c2cc(C(F)(F)F)nc(-n3cc(Cl)cn3)n2)c1 | > 120 µM (not active) |
| CCn1c(C(=O)NC(C)c2ccc3c(c2)OCCO3)cc2sccc21 (stereo unspecified) | 14.2 µM (active) |
| COc1ccc(NC(=O)C2CCN(C(=O)Nc3ccc(C)cc3)CC2)cc1OC | > 120 µM (not active) |
| O=S(=O)(c1ccc2c(c1)OCCO2)N1CCC(c2nc(O)c3nnn(Cc4ccccc4F)c3n2)CC1 | > 120 µM (not active) |
| C1=C(c2cccc3ccccc23)N2CCN=C2S1 | > 120 µM (not active) |
| O=C(N/N=C/c1cc([N+](=O)[O-])ccc1Cl)c1cnccn1 | > 120 µM (not active) |

system: not listed separately; experiment: Luminescence Cell-Based Dose Response HTS to Identify Inhibitors of 5'UTR Stem-Loop Driven Prion Protein mRNA Translation in H4 Neuroglioblastoma Cells. [Related pubchem assays: 1827 (Project Summary), 1813 (Primary HTS)]; type: functional; details: not given

| Structure (SMILES) | EC50 |
| --- | --- |
| CC(C)Cc1nc2n[nH]c(N)c2c2c1COC(C)(C)C2 | > 120 µM (not active) |
| O=C(c1nc2nc(-c3ccc(Cl)cc3)cc(C(F)(F)F)n2n1)N1CCOCC1 | 54.3 µM (active) |
| COc1cccc(-c2cc(C(F)(F)F)nc(-n3cc(Cl)cn3)n2)c1 | > 120 µM (not active) |
| CCn1c(C(=O)NC(C)c2ccc3c(c2)OCCO3)cc2sccc21 (stereo unspecified) | 15.8 µM (active) |
| COc1ccc(NC(=O)C2CCN(C(=O)Nc3ccc(C)cc3)CC2)cc1OC | > 120 µM (not active) |
| Cc1ccc2c(COC(=O)C3=COCCO3)cc(=O)oc2c1 | 10.5 µM (active) |
| O=S(=O)(c1ccc2c(c1)OCCO2)N1CCC(c2nc(O)c3nnn(Cc4ccccc4F)c3n2)CC1 | > 120 µM (not active) |
| C1=C(c2cccc3ccccc23)N2CCN=C2S1 | > 120 µM (not active) |
| O=C(N/N=C/c1cc([N+](=O)[O-])ccc1Cl)c1cnccn1 | 9.8 µM (active) |

system: not listed separately; experiment: alpha-synuclein stem-loop luciferase translation blockers – H4 neuroglioma cells, luminescence, confirmation (AID 1988); type: functional, cell-based; details: not given

| Structure (SMILES) | EC50 |
| --- | --- |
| CC(C)Cc1nc2n[nH]c(N)c2c2c1COC(C)(C)C2 | 21.4 µM (active) |
| O=C(c1nc2nc(-c3ccc(Cl)cc3)cc(C(F)(F)F)n2n1)N1CCOCC1 | 15.9 µM (active) |
| COc1ccc(-c2[nH]ncc2CN2CCC(O)(c3ccc(Cl)cc3)CC2)cc1 | 9.96 µM (active) |
| COc1cccc(-c2cc(C(F)(F)F)nc(-n3cc(Cl)cn3)n2)c1 | > 120 µM (not active) |
| CCn1c(C(=O)NC(C)c2ccc3c(c2)OCCO3)cc2sccc21 (stereo unspecified) | 22.5 µM (active) |
| COc1ccc(NC(=O)C2CCN(C(=O)Nc3ccc(C)cc3)CC2)cc1OC | > 120 µM (not active) |
| Cc1ccc2c(COC(=O)C3=COCCO3)cc(=O)oc2c1 | 8.1 µM (inconclusive) |
| O=S(=O)(c1ccc2c(c1)OCCO2)N1CCC(c2nc(O)c3nnn(Cc4ccccc4F)c3n2)CC1 | > 120 µM (not active) |
| C1=C(c2cccc3ccccc23)N2CCN=C2S1 | > 120 µM (not active) |
| O=C(N/N=C/c1cc([N+](=O)[O-])ccc1Cl)c1cnccn1 | > 120 µM (not active) |

biological target: Cytochrome P450 2C19 (Homo sapiens, UniProt P33261); experiment: Cytochrome panel assay with activity outcomes. Panel member name: p450-cyp2c19 Compounds with AC50 equal or less than 10 uM are considered active; type: functional; details: not given
Sequence (P33261 whole entry): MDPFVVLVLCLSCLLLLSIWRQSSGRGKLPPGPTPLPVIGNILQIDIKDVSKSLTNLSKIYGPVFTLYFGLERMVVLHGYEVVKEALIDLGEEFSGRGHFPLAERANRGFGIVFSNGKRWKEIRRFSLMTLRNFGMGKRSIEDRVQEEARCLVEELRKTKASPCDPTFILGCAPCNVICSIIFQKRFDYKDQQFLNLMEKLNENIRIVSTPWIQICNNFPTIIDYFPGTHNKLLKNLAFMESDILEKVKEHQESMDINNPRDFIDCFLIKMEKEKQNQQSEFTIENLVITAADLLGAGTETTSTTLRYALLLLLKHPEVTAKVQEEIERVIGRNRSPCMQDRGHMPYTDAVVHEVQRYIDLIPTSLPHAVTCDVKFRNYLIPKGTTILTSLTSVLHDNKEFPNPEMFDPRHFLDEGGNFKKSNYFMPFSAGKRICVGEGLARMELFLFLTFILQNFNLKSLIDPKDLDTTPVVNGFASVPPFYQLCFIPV

| Structure (SMILES) | AC50 |
| --- | --- |
| O=C(O)Cc1ccc2ocnc2c1 | inconclusive |
| NS(=O)(=O)c1ccc(CCNC(=O)C2CCCN2C(=O)OCc2ccccc2)cc1 (stereo unspecified) | inconclusive |
| Cc1occc1C(=O)NNC(=O)c1ccc(F)cc1 | inconclusive |

same assay, conditions: read-out: AC50

| Structure (SMILES) | AC50 |
| --- | --- |
| COc1ccc(-n2nc(C(=O)NCC(=O)Nc3ccccn3)c3ccccc3c2=O)cc1 | 3.16 µM (inconclusive) |
| CC(C)CN(CC(C)C)S(=O)(=O)N1CCC(C(=O)NCc2ccc(F)cc2)CC1 | 25.1 µM (inconclusive) |
| CNCC/C=C\c1cccnc1 | 20 µM (inconclusive) |
| Cc1ccc(NC(=O)CCC(=O)NNC(=O)c2ccco2)cc1C | 17.8 µM (inconclusive) |
| CC(=O)Nc1nonc1NC(=O)c1ccc(C(C)(C)C)cc1 | 3.55 µM (inconclusive) |
| O=c1[nH][nH]c(=S)c(=O)[nH]1 | 2 µM (inconclusive) |
| Cc1cnc(CNc2ncnc3ccc(-c4ccc5c(c4)OCO5)cc23)cn1 | 15.8 µM (inconclusive) |
| CC(=O)N(CC(=O)O)c1ccccc1C(=O)O | 0.0562 µM (inconclusive) |
| O=C1C=C(NCCN2CCOCC2)CC(c2ccccc2)C1 (stereo unspecified) | 39.8 µM (inconclusive) |

biological target: T1, Corticotropin-releasing factor receptor 2/Corticotropin-releasing factor-binding protein (Homo sapiens, UniProt P24387+Q13324); experiment: Dose Response confirmation of uHTS hits for small molecule antagonists of the CRF-binding protein and CRF-R2 receptor complex.; type: functional; details: read-out: IC50_Mean
T1 sequence (Q13324 whole entry): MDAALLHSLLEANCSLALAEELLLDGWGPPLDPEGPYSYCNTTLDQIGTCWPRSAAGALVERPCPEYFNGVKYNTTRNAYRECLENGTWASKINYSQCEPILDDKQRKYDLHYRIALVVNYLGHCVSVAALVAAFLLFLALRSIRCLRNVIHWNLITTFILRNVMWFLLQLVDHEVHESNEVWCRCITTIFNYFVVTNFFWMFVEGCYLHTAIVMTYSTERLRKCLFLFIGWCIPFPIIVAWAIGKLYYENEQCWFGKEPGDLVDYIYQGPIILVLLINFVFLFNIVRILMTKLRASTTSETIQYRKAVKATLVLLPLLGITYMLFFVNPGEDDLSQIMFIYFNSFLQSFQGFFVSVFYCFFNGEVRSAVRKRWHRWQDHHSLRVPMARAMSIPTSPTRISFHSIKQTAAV
T1 sequence (P24387 whole entry): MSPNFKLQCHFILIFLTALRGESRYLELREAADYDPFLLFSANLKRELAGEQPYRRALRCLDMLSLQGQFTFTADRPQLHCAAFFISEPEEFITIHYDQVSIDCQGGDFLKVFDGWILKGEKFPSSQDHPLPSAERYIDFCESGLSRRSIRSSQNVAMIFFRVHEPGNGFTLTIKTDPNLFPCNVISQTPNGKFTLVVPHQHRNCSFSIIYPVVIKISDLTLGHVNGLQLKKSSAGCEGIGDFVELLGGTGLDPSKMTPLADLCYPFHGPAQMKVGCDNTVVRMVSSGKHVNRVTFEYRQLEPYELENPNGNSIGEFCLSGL

| Structure (SMILES) | IC50 |
| --- | --- |
| O=C(CSCC(=O)Nc1cccc([N+](=O)[O-])c1)Nc1ccccc1 | > 47.1 µM (inactive) |
| CCOC(=O)c1c(CC(C)C)csc1N | > 47.1 µM (inactive) |
| COc1ccc(/C=C/c2c([N+](=O)[O-])c(=O)n(C)c(=O)n2C)cc1O | > 47.1 µM (inactive) |
| COC(=O)CCCC1=CC2=C(c3ccccc3)C(=O)C(C)(OC(=O)C3CCCC3)C(=O)C2=CN1CCc1ccccn1 (stereo unspecified) | > 47.1 µM (inactive) |
| C=CCOC(=O)C(C#N)c1nc2ccccc2nc1N1CCN(c2ccccc2OCC)CC1 (stereo unspecified) | > 47.1 µM (inactive) |
| CCCn1c(C(C)NS(=O)(=O)c2ccccc2)n[nH]c1=S (stereo unspecified) | > 47.1 µM (inactive) |
| CCN1C(c2ccccc2)C(C)C(=O)C(C)C1c1ccccc1 (stereo unspecified) | > 47.1 µM (inactive) |
| O=C(C1CC(=O)N(c2ccc(Br)cc2)C1)N1CCCC1 (stereo unspecified) | > 47.1 µM (inactive) |
| C=C(C)Cn1c(=O)c2c(nc3n2CC(C)CN3Cc2ccccc2)n(C)c1=O (stereo unspecified) | > 47.1 µM (inactive) |
| CCCCc1nc2ccccc2c(NC(=O)CN(CC)CC)c1CCC | > 47.1 µM (inactive) |
| Fc1ccccc1CNC(=S)Nc1ccc(Cl)cc1 | 5.53 µM (active) |
| CCCCCCCCCSc1nnc(N)[nH]1 | > 47.1 µM (inactive) |
| C=Cn1cc[n+](CC(=O)c2ccc(Cl)cc2)c1 | > 47.1 µM (inactive) |
| CC(=O)Oc1ccc2cc(-c3cccnc3)c(=O)oc2c1 | > 47.1 µM (inactive) |
| COc1cccc(N2CCN(S(=O)(=O)c3c(C)[nH]c(C)c3C(=O)N3CCCC3)CC2)c1 | > 47.1 µM (inactive) |
| O=C(OCc1cc(=O)n2ccsc2n1)C1(c2ccccc2)CC1 | > 47.1 µM (inactive) |

biological target: T1, Corticotropin-releasing factor receptor 2/Corticotropin-releasing factor-binding protein; experiment: activators of CRF receptor 2 with binding protein – uHTS hits, confirmation (AID 602473); type: functional; details: read-out: EC50_Mean

| Structure (SMILES) | EC50 |
| --- | --- |
| O=C(CSCC(=O)Nc1cccc([N+](=O)[O-])c1)Nc1ccccc1 | > 53 µM (inactive) |
| CCOC(=O)c1c(CC(C)C)csc1N | > 53 µM (inactive) |
| COc1ccc(/C=C/c2c([N+](=O)[O-])c(=O)n(C)c(=O)n2C)cc1O | > 53 µM (inactive) |
| COC(=O)CCCC1=CC2=C(c3ccccc3)C(=O)C(C)(OC(=O)C3CCCC3)C(=O)C2=CN1CCc1ccccn1 (stereo unspecified) | > 53 µM (inactive) |
| C=CCOC(=O)C(C#N)c1nc2ccccc2nc1N1CCN(c2ccccc2OCC)CC1 (stereo unspecified) | > 53 µM (inactive) |
| CCCn1c(C(C)NS(=O)(=O)c2ccccc2)n[nH]c1=S (stereo unspecified) | > 53 µM (inactive) |
| CCN1C(c2ccccc2)C(C)C(=O)C(C)C1c1ccccc1 (stereo unspecified) | > 53 µM (inactive) |
| O=C(C1CC(=O)N(c2ccc(Br)cc2)C1)N1CCCC1 (stereo unspecified) | > 53 µM (inactive) |
| C=C(C)Cn1c(=O)c2c(nc3n2CC(C)CN3Cc2ccccc2)n(C)c1=O (stereo unspecified) | > 53 µM (inactive) |
| CCCCc1nc2ccccc2c(NC(=O)CN(CC)CC)c1CCC | > 53 µM (inactive) |
| Fc1ccccc1CNC(=S)Nc1ccc(Cl)cc1 | > 53 µM (inactive) |
| CCCCCCCCCSc1nnc(N)[nH]1 | > 53 µM (inactive) |
| C=Cn1cc[n+](CC(=O)c2ccc(Cl)cc2)c1 | > 53 µM (inactive) |
| CC(=O)Oc1ccc2cc(-c3cccnc3)c(=O)oc2c1 | > 53 µM (inactive) |
| COc1cccc(N2CCN(S(=O)(=O)c3c(C)[nH]c(C)c3C(=O)N3CCCC3)CC2)c1 | > 53 µM (inactive) |
| O=C(OCc1cc(=O)n2ccsc2n1)C1(c2ccccc2)CC1 | > 53 µM (inactive) |

biological target: Cytochrome P450 2D6 (Homo sapiens, UniProt P10635); details: not given;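 also: CYP2D6 member of a cytochrome P450 panel assay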
Sequence (P10635 whole entry): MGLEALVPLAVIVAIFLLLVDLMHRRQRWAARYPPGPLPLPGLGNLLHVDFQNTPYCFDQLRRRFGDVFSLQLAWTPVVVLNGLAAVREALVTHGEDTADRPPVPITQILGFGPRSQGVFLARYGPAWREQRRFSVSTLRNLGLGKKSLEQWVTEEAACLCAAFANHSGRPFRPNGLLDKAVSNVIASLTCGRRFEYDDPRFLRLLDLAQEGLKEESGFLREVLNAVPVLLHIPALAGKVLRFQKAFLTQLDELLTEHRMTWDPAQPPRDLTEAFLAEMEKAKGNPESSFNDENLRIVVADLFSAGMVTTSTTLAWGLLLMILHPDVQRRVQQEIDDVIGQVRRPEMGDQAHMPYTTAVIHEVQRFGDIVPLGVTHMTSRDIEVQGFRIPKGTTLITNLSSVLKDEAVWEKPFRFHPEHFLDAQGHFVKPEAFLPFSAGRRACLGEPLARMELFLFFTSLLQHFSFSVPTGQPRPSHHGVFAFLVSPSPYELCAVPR

| Structure (SMILES) | AC50 |
| --- | --- |
| FC(F)(F)c1cc(Sc2ccccc2)nc(-c2ccccn2)n1 | 11.2 µM (inconclusive) |
| CNCC/C=C\c1cccnc1 | 15.8 µM (inconclusive) |
| Nc1nc(OCc2ccccc2)c2[nH]cnc2n1 [6-O-BENZYLGUANINE] | 0.501 µM (inconclusive) |

biological target: Cytochrome P450 2C9 (Homo sapiens, UniProt P11712); details: not given
Sequence (P11712 whole entry): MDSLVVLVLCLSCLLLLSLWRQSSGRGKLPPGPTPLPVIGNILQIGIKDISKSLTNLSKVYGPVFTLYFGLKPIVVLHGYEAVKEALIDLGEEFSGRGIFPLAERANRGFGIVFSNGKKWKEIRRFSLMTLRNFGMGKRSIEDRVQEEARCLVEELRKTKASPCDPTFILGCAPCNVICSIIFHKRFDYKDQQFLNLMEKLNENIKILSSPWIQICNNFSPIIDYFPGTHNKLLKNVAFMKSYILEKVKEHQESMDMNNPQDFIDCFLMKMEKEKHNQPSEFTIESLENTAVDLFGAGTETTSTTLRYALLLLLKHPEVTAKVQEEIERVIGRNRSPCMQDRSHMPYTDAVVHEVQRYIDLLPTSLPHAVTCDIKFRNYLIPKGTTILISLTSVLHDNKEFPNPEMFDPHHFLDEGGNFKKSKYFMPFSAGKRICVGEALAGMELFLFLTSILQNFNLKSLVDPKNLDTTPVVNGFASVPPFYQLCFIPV

| Structure (SMILES) | AC50 |
| --- | --- |
| Fc1ccccc1CCNCc1cccc(Cl)c1Cl | 39.8 µM (inconclusive) |
| FC(F)(F)c1cc(Sc2ccccc2)nc(-c2ccccn2)n1 | 14.1 µM (inconclusive) |
| COc1ccc(-n2nc(C(=O)NCC(=O)Nc3ccccn3)c3ccccc3c2=O)cc1 | 1.41 µM (inconclusive) |
| Oc1ccc2ccccc2c1CN(Cc1c(O)ccc2ccccc12)C1CCCCC1 | 7.94 µM (inconclusive) |
| NS(=O)(=O)c1ccc(CCNC(=O)C2CCCN2C(=O)OCc2ccccc2)cc1 (stereo unspecified) | 15.8 µM (inconclusive) |
| CNCC/C=C\c1cccnc1 | 39.8 µM (inconclusive) |
| Cc1ccc(NC(=O)CCC(=O)NNC(=O)c2ccco2)cc1C | 12.6 µM (inconclusive) |
| CC(=O)Nc1nonc1NC(=O)c1ccc(C(C)(C)C)cc1 | 3.55 µM (inconclusive) |
| O=c1[nH][nH]c(=S)c(=O)[nH]1 | 2.51 µM (inconclusive) |
| Nc1nc(OCc2ccccc2)c2[nH]cnc2n1 [6-O-BENZYLGUANINE] | 39.8 µM (inconclusive) |
| CC(C)[C@H](CO)Nc1nc(Nc2cccc(Cl)c2)c2ncn(C(C)C)c2n1 [PURVALANOLA] | 39.8 µM (inconclusive) |
